# Measurements: patent US12522583B2, “Benzimidazole derivatives and aza-benzimidazole derivatives as Janus kinase 2 inhibitors and uses thereof” (Dana-Farber Cancer Institute, Inc., priority 2018, dated 2026)
# Key:
# Assay in all cases: KINOMEscan
# Format in all cases: binding
# Details in all cases: read-out: percent control
# [1] = biological target: ABL1(F317L)-nonphosphorylated (Homo sapiens (Human), UniProt P00519, F317L)
# Excerpt: (§1) Example 2. In Vitro Kinase Selectivity Profiling of the Compounds of the Present Disclosure
# AKT1 = AKT1 (Homo sapiens (Human), UniProt P31749)
# Excerpt: as §1
# ASK1 = ASK1 (Homo sapiens (Human), UniProt Q99683)
# Excerpt: as §1
# BIKE = BIKE (Homo sapiens (Human), UniProt Q9NSY1)
# Excerpt: as §1
# BRAF(V600E) = BRAF(V600E) (Homo sapiens (Human), UniProt P15056, V600E)
# Excerpt: as §1
# CAMK4 = CAMK4 (Homo sapiens (Human), UniProt Q16566)
# Excerpt: as §1
# CDK2 = CDK2 (Homo sapiens (Human), UniProt P24941)
# Excerpt: as §1
# DLK = DLK (Homo sapiens (Human), UniProt Q12852)
# Excerpt: as §1
# EGFR(E746-A750del) = EGFR(E746-A750del) (Homo sapiens (Human), UniProt P00533, DEL746-750)
# EGFR(E746-A750del), sequence (P00533 other isoform, or with tags, fused parts or gaps del E746-A750): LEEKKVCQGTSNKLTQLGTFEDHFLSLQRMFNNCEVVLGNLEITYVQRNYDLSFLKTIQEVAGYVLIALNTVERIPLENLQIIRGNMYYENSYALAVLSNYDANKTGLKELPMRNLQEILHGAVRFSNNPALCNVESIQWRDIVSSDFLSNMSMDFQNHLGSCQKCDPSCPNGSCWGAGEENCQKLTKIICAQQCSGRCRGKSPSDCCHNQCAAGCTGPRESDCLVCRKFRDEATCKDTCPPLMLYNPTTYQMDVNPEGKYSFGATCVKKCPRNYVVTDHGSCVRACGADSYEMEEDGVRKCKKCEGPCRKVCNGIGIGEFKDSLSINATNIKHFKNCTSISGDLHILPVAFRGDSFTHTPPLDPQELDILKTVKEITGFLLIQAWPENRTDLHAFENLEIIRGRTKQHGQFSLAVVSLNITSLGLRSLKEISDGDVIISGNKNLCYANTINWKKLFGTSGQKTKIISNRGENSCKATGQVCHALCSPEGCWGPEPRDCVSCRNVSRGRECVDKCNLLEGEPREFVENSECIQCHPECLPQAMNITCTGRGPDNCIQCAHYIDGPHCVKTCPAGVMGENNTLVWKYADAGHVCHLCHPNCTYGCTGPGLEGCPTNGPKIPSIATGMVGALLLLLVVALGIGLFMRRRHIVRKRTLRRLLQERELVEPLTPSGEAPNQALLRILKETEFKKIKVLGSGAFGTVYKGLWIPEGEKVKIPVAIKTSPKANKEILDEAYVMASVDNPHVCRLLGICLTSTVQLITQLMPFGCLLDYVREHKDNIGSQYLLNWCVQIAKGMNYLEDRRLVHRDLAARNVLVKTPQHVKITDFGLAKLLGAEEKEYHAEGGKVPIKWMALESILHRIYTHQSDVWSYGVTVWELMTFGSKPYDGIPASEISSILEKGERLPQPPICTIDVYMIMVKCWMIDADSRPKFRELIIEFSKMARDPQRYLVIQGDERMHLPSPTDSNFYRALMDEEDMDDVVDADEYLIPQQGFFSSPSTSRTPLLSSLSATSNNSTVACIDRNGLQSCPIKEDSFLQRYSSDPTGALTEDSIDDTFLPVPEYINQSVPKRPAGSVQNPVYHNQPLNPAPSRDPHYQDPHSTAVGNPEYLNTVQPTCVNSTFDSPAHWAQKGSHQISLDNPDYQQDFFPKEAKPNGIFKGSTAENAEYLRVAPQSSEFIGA
# Excerpt: as §1
# EGFR(L861Q) = EGFR(L861Q) (Homo sapiens (Human), UniProt P00533, L861Q)
# Excerpt: as §1
# EGFR(T790M) = EGFR(T790M) (Homo sapiens (Human), UniProt P00533, T790M)
# Excerpt: as §1
# EPHB6 = EPHB6 (Homo sapiens (Human), UniProt O15197)
# Excerpt: as §1
# FGFR1 = FGFR1 (Homo sapiens (Human), UniProt P11362)
# Excerpt: as §1
# FGR = FGR (Homo sapiens (Human), UniProt P09769)
# Excerpt: as §1
# GAK = GAK (Homo sapiens (Human), UniProt O14976)
# Excerpt: as §1
# HCK = HCK (Homo sapiens (Human), UniProt P08631)
# Excerpt: as §1
# HUNK = HUNK (Homo sapiens (Human), UniProt P57058)
# Excerpt: as §1
# INSR = INSR (Homo sapiens (Human), UniProt P06213)
# Excerpt: as §1
# IRAK4 = IRAK4 (Homo sapiens (Human), UniProt Q9NWZ3)
# Excerpt: as §1
# JNK1 = JNK1 (Homo sapiens (Human), UniProt P45983)
# Excerpt: as §1
# KIT(D816H) = KIT(D816H) (Homo sapiens (Human), UniProt P10721, D816H)
# KIT(D816H), sequence (P10721 26-976 D816H): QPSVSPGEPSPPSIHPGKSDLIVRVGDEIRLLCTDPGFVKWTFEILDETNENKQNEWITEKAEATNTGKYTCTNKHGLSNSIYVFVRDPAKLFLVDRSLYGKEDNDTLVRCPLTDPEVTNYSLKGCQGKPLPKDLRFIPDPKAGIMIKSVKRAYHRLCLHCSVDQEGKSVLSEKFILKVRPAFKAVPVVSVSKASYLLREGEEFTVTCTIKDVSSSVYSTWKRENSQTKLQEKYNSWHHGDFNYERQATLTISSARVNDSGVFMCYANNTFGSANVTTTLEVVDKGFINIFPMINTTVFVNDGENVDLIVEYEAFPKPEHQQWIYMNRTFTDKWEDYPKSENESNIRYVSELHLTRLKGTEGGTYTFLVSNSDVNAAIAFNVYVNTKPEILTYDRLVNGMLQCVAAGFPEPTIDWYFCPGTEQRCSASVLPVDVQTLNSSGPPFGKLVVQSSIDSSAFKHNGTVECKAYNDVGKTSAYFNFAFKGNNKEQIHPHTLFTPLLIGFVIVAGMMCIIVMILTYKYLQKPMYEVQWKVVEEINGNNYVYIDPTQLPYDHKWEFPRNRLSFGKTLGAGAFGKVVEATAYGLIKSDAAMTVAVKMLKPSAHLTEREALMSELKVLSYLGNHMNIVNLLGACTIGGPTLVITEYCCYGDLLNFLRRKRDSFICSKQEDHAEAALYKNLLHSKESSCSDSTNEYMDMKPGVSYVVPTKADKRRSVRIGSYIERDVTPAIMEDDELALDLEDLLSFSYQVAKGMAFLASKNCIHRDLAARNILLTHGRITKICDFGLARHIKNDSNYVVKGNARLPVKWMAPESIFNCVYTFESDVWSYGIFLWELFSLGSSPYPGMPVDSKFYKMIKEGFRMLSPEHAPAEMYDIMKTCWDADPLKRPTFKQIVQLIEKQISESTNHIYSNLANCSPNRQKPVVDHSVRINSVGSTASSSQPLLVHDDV
# Excerpt: as §1
# MAP3K3 = MAP3K3 (Homo sapiens (Human), UniProt Q99759)
# Excerpt: as §1
# MEK6 = MEK6 (Homo sapiens (Human), UniProt P52564)
# Excerpt: as §1
# MET = MET (Homo sapiens (Human), UniProt P08581)
# MET, sequence (P08581 25-1390): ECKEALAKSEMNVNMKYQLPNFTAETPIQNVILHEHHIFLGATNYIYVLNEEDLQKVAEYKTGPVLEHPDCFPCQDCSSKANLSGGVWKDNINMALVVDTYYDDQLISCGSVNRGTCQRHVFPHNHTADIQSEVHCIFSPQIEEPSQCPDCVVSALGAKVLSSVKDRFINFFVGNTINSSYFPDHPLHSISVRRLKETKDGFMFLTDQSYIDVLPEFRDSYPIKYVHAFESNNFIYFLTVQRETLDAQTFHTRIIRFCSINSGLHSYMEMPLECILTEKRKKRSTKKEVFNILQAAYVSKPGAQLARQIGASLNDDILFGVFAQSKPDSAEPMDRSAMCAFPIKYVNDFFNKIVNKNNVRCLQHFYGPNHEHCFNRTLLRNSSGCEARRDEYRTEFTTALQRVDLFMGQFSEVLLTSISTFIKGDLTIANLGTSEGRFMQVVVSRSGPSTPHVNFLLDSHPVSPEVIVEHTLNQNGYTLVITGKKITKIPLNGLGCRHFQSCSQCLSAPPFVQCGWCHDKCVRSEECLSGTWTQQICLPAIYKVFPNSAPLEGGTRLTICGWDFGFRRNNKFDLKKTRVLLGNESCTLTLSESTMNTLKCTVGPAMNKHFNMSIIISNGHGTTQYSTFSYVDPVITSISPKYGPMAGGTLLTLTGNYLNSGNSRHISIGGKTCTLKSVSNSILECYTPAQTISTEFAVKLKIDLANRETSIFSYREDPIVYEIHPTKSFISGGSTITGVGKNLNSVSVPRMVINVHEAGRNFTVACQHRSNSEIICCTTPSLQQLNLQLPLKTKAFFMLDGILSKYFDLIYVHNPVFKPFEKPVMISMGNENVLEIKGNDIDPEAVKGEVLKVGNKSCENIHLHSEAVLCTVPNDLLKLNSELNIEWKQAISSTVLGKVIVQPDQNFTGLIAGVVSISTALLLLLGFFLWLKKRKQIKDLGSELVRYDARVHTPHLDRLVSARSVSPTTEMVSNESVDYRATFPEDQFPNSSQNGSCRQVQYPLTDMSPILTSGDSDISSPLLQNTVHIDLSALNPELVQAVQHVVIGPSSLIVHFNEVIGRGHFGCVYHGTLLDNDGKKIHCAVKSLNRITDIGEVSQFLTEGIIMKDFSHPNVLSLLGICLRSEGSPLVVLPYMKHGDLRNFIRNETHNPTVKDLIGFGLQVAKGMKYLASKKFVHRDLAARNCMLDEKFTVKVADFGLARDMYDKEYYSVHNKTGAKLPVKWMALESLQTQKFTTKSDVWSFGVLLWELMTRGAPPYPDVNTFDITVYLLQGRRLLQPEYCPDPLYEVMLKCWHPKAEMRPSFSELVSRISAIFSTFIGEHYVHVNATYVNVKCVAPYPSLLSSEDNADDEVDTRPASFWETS
# Excerpt: as §1
# MRCKA = MRCKA (Homo sapiens (Human), UniProt Q5VT25)
# Excerpt: as §1
# MUSK = MUSK (Homo sapiens (Human), UniProt O15146)
# Excerpt: as §1
# NEK5 = NEK5 (Homo sapiens (Human), UniProt Q6P3R8)
# Excerpt: as §1
# PIK3CA(E542K) = PIK3CA(E542K) (Homo sapiens (Human), UniProt P42336, E542K)
# Excerpt: as §1
# PIK3CG = PIK3CG (Homo sapiens (Human), UniProt P48736)
# Excerpt: as §1
# PKN2 = PKN2 (Homo sapiens (Human), UniProt Q16513)
# Excerpt: as §1
# PLK2 = PLK2 (Homo sapiens (Human), UniProt Q9NYY3)
# Excerpt: as §1
# RIOK3 = RIOK3 (Homo sapiens (Human), UniProt O14730)
# Excerpt: as §1
# ROCK2 = ROCK2 (Homo sapiens (Human), UniProt O75116)
# Excerpt: as §1
# [2] = biological target: RPS6KA4(Kin.Dom.2-terminal) (Homo sapiens (Human), UniProt O75676)
# Excerpt: as §1
# SBK1 = SBK1 (Homo sapiens (Human), UniProt Q52WX2)
# SBK1, sequence (Q52WX2 whole entry): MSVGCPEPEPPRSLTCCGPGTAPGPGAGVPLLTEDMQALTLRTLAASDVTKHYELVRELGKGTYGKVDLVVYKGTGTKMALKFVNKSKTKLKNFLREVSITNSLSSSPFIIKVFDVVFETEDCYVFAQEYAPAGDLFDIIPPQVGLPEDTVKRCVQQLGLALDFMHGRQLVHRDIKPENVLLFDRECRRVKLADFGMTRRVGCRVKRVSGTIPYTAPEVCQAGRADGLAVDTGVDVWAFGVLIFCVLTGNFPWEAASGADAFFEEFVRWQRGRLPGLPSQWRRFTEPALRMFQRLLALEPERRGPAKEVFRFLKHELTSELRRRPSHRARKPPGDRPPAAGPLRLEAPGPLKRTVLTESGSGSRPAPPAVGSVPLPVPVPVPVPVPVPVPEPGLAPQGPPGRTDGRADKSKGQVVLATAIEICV
# Excerpt: as §1
# SRPK3 = SRPK3 (Homo sapiens (Human), UniProt Q9UPE1)
# Excerpt: as §1
# STK33 = STK33 (Homo sapiens (Human), UniProt Q9BYT3)
# Excerpt: as §1
# VRK2 = VRK2 (Homo sapiens (Human), UniProt Q86Y07)
# Excerpt: as §1
# WNK4 = WNK4 (Homo sapiens (Human), UniProt Q96J92)
# Excerpt: as §1
# ZAP70 = ZAP70 (Homo sapiens (Human), UniProt P43403)
# Excerpt: as §1
# ABL1(F317L)-nonphosphorylated, sequence (P00519 whole entry F317L): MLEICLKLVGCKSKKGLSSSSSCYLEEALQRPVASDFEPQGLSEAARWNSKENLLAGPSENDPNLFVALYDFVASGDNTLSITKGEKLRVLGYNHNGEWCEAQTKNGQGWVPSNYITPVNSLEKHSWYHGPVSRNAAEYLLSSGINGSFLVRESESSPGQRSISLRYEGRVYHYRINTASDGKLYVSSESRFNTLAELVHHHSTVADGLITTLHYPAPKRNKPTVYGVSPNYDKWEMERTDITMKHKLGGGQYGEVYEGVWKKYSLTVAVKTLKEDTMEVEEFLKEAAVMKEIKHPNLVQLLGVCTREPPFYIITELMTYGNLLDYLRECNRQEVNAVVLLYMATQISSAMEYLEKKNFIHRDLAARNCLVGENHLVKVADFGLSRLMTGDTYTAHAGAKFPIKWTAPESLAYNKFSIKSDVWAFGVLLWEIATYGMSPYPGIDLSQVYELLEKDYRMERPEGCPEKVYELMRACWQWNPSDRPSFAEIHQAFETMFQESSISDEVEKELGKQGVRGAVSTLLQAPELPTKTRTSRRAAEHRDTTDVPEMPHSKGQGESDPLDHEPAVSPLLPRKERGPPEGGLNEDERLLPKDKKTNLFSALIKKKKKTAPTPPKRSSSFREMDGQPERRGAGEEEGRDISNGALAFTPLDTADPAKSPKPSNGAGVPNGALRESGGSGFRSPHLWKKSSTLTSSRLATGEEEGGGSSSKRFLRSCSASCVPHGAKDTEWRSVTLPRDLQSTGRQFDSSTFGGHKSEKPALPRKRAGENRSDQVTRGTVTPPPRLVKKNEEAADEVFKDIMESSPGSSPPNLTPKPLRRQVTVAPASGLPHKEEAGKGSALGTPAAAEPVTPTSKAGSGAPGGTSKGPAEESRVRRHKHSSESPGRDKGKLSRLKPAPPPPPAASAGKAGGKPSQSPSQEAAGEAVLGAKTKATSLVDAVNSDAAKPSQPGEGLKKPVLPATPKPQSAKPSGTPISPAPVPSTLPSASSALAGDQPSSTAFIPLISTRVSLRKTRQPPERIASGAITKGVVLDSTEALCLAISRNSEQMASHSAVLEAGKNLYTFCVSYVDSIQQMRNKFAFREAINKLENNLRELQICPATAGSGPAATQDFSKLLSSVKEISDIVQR
Compound,remaining binding at 1 µM [1],remaining binding at 1 µM (AKT1),remaining binding at 1 µM (ASK1),remaining binding at 1 µM (BIKE),remaining binding at 1 µM (BRAF(V600E)),remaining binding at 1 µM (CAMK4),remaining binding at 1 µM (CDK2),remaining binding at 1 µM (DLK),remaining binding at 1 µM (EGFR(E746-A750del)),remaining binding at 1 µM (EGFR(L861Q)),remaining binding at 1 µM (EGFR(T790M)),remaining binding at 1 µM (EPHB6),remaining binding at 1 µM (FGFR1),remaining binding at 1 µM (FGR),remaining binding at 1 µM (GAK),remaining binding at 1 µM (HCK),remaining binding at 1 µM (HUNK),remaining binding at 1 µM (INSR),remaining binding at 1 µM (IRAK4),remaining binding at 1 µM (JNK1),other results
CCN1CCN(Cc2ccc(Nc3nc4ccc(Oc5ccnc(NC(C)=O)c5)cc4n3C)cc2C(F)(F)F)CC1 [Compound I-2],9%,94%,77%,88%,0.8%,98%,100%,100%,91%,98%,96%,72%,86%,100%,100%,89%,65%,20%,81%,79%,remaining binding at 1 µM (KIT(D816H)): 22%; remaining binding at 1 µM (MAP3K3): 16%; remaining binding at 1 µM (MEK6): 88%; remaining binding at 1 µM (MET): 43%; remaining binding at 1 µM (MRCKA): 100%; remaining binding at 1 µM (MUSK): 100%; remaining binding at 1 µM (NEK5): 38%; remaining binding at 1 µM (PIK3CA(E542K)): 100%; remaining binding at 1 µM (PIK3CG): 100%; remaining binding at 1 µM (PKN2): 100%; remaining binding at 1 µM (PLK2): 94%; remaining binding at 1 µM (RIOK3): 22%; remaining binding at 1 µM (ROCK2): 100%; remaining binding at 1 µM [2]: 88%; remaining binding at 1 µM (SBK1): 84%; remaining binding at 1 µM (SRPK3): 100%; remaining binding at 1 µM (STK33): 76%; remaining binding at 1 µM (VRK2): 54%; remaining binding at 1 µM (WNK4): 93%; remaining binding at 1 µM (ZAP70): 100%
"CCN1CCN(Cc2ccc(Nc3nc4ccc(Oc5ccnc(NC(C)=O)c5)c(C)c4n3C)cc2C(F)(F)F)CC1 [Compound I-6, N-(4-(2-(4-((4-ethylpiperazin-1-yl)methyl)-3-(trifluoromethyl)phenylamino)-1,7-dimethyl-1H-benzo[d]imidazol-6-yloxy)pyridin-2-yl)acetamide]",3.2%,89%,97%,96%,1.8%,100%,86%,100%,89%,100%,83%,95%,75%,51%,98%,34%,91%,12%,98%,90%,remaining binding at 1 µM (KIT(D816H)): 44%; remaining binding at 1 µM (MAP3K3): 0.95%; remaining binding at 1 µM (MEK6): 71%; remaining binding at 1 µM (MET): 40%; remaining binding at 1 µM (MRCKA): 98%; remaining binding at 1 µM (MUSK): 72%; remaining binding at 1 µM (NEK5): 6.7%; remaining binding at 1 µM (PIK3CA(E542K)): 100%; remaining binding at 1 µM (PIK3CG): 95%; remaining binding at 1 µM (PKN2): 93%; remaining binding at 1 µM (PLK2): 71%; remaining binding at 1 µM (RIOK3): 100%; remaining binding at 1 µM (ROCK2): 90%; remaining binding at 1 µM [2]: 89%; remaining binding at 1 µM (SBK1): 89%; remaining binding at 1 µM (SRPK3): 87%; remaining binding at 1 µM (STK33): 66%; remaining binding at 1 µM (VRK2): 100%; remaining binding at 1 µM (WNK4): 82%; remaining binding at 1 µM (ZAP70): 99%
